Measured values published in US8648066B2 (Exelixis, Inc., priority 2009, dated 2014).

Target: mTOR/GbL/Raptor (mTORC1) (Homo sapiens, UniProt P42345)
Assay: mTOR/GbL/Raptor (mTORC1) ELISA assay
Assay type: biochemical
Details: phosphorylation of 4E-BP1; 0.2 nM mTORC1, 10 μM ATP; read-out: IC50 in this assay (mTORC1 ELISA)
Outline: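 Human mTORC1 (0.2 nM) phosphorylated 50 nM His-tagged 4E-BP1 with 10 µM ATP in HEPES pH 7.2 containing 10 mM MnCl2, 120 min at ambient temperature. Substrate was captured on Ni-chelate plates; phospho-4E-BP1 was detected by primary antibody and HRP secondary with luminescence.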

| SMILES | IC50 [nM] |
| --- | --- |
| CNS(=O)(=O)c1cc(-c2ccc3c(c2)CN(c2ncnc(C)c2Cc2ccc(F)cc2)CCO3)cnc1N [Example 363, 2-amino-5-(4-{5-[(4-fluorophenyl)methyl]-6-methylpyrimidin-4-yl}-2,3,4,5-tetrahydro-1,4-benzoxazepin-7-yl)-N-methylpyridine-3-sulfonamide] | 10 to 50 |
| CC1(C)CCc2ncnc(N3CCOc4ccc(-c5cnc(C(N)=O)c(N)c5)cc4C3)c2C1 [Example 457, 3-amino-5-[4-(6,6-dimethyl-5,6,7,8-tetrahydroquinazolin-4-yl)-2,3,4,5-tetrahydro-1,4-benzoxazepin-7-yl]pyridine-2-carboxamide] | 50 to 250 |
| CCNc1nc2ccc(-c3ccc4c(c3)CN(c3ncnc(C)c3Cc3ccc(F)cc3)CCO4)cc2[nH]1 [Example 192, N-ethyl-6-(4-{5-[(4-fluorophenyl)methyl]-6-methylpyrimidin-4-yl}-2,3,4,5-tetrahydro-1,4-benzoxazepin-7-yl)-1H-benzimidazol-2-amine] | ≤ 10 |
| CCSc1nc2c(c(N3CCOc4ccc(-c5ccc6nc(C)[nH]c6c5)cc4C3)n1)CCC2 [Example 54, 4-[2-(ethylthio)-6,7-dihydro-5H-cyclopenta[d]pyrimidin-4-yl]-7-(2-methyl-1H-benzimidazol-6-yl)-2,3,4,5-tetrahydro-1,4-benzoxazepine] | 250 to 1000 |
| Cc1nc2ccc(-c3ccc4c(c3)CN(c3ccnc5ccccc35)CCO4)cc2[nH]1 [Example 98, 7-(2-methyl-1H-benzimidazol-6-yl)-4-quinolin-4-yl-2,3,4,5-tetrahydro-1,4-benzoxazepine] | 50 to 250 |
| CN(C)C1CN(S(=O)(=O)c2cc(-c3ccc4c(c3)CN(c3ncnc5c3CC(C)(C)CC5)CCO4)cnc2N)C1 [Example 455, 3-{[3-(dimethylamino)azetidin-1-yl]sulfonyl}-5-[4-(6,6-dimethyl-5,6,7,8-tetrahydroquinazolin-4-yl)-2,3,4,5-tetrahydro-1,4-benzoxazepin-7-yl]pyridin-2-amine] | 50 to 250 |
| Cc1nc2ncc(-c3ccc4c(c3)CN(c3ncnc5c3CCC(C)(c3ccccc3)C5)CCO4)cc2[nH]1 (stereo not drawn) [Example 558, 7-(2-methyl-1H-imidazo[4,5-b]pyridin-6-yl)-4-(7-methyl-7-phenyl-5,6,7,8-tetrahydroquinazolin-4-yl)-2,3,4,5-tetrahydro-1,4-benzoxazepine] | ≤ 10 |
| CN(C)c1nc2ccc(-c3ccc4c(c3)CN(c3ccnc5ccccc35)CCO4)cc2[nH]1 [Example 195, N,N-dimethyl-6-(4-quinolin-4-yl-2,3,4,5-tetrahydro-1,4-benzoxazepin-7-yl)-1H-benzimidazol-2-amine] | 1000 to 2000 |
| CC(=O)OCc1nc(C)c(Cc2ccc(F)cc2)c(N2CCOc3ccc(-c4ccc5[nH]c(C)nc5c4)cc3C2)n1 [Example 311, {5-[4(fluorophenyl)methyl]-4-methyl-6-[7-(2-methyl-1H-benzimidazol-5-yl)-2,3-dihydro-1,4-benzoxazepin-4(5H)-yl]pyrimidin-2-yl}methyl acetate] | ≤ 10 |
| CC1(C)CCc2ncnc(N3CCOc4ccc(-c5cnc(N)c(S(=O)(=O)NCCO)c5)cc4C3)c2C1 [Example 371, 2-amino-5-[4-(6,6-dimethyl-5,6,7,8-tetrahydroquinazolin-4-yl)-2,3,4,5-tetrahydro-1,4-benzoxazepin-7-yl]-N-(2-hydroxyethyl)pyridine-3-sulfonamide] | ≤ 10 |
| COc1ccc(-c2ccc3c(c2)CN(c2nc(CN(C)C)nc4c2CC(C)(C)CC4)CCO3)cc1OC [Example 323, 1-(4-{7-[3,4-bis(methyloxy)phenyl]-2,3-dihydro-1,4-benzoxazepin-4(5H)-yl}-6,6-dimethyl-5,6,7,8-tetrahydroquinazolin-2-yl)-N,N-dimethylmethanamine] | 250 to 1000 |
| COC(=O)Nc1nc2ccc(-c3ccc4c(c3)CN(c3ccnc5ccccc35)CCO4)cc2[nH]1 [Example 114, methyl [6-(4-quinolin-4-yl-2,3,4,5-tetrahydro-1,4-benzoxazepin-7-yl)-1H-benzimidazol-2-yl]carbamate] | 250 to 1000 |
| CC1(C)CCc2ncnc(N3CCOc4ccc(-c5cnc(N)c(S(=O)(=O)NC(C)(C)CN)c5)cc4C3)c2C1 [Example 403, 2-amino-N-(2-amino-1,1-dimethylethyl)-5-[4-(6,6-dimethyl-5,6,7,8-tetrahydroquinazolin-4-yl)-2,3,4,5-tetrahydro-1,4-benzoxazepin-7-yl]pyridine-3-sulfonamide] | 10 to 50 |
| Cc1nc2ccc(-c3ccc4c(c3)CN(c3ncnc(C)c3C(C)c3ccccc3)CCO4)cc2[nH]1 (stereo not drawn) [Example 74] | ≤ 10 |
| CC[C@H]1CCc2c(ncnc2N2CCOc3ccc(-c4cnc(N)c(S(=O)(=O)N5CCC(C)(N)C5)c4)cc3C2)C1 (stereo partly drawn) [Example 442, 3-[(3-amino-3-methylpyrrolidin-1-yl)sulfonyl]-5-{4-[(7S)-7-ethyl-5,6,7,8-tetrahydroquinazolin-4-yl]-2,3,4,5-tetrahydro-1,4-benzoxazepin-7-yl}pyridin-2-amine] | 10 to 50 |
| Cc1nc2ccc(-c3ccc4c(c3)CN(c3cc(C(F)(F)F)nc5ccccc35)CCO4)cc2[nH]1 [Example 99, 7-(2-methyl-1H-benzimidazol-6-yl)-4-[2-(trifluoromethyl)quinolin-4-yl]-2,3,4,5-tetrahydro-1,4-benzoxazepine] | 50 to 250 |
| Cc1cccc(Cl)c1S(=O)(=O)Nc1cc(-c2ccc3c(c2)CN(c2ncnc4c2CC(C)(C)CC4)CCO3)cnc1Cl [Example 429, 2-chloro-N-{2-chloro-5-[4-(6,6-dimethyl-5,6,7,8-tetrahydroquinazolin-4-yl)-2,3,4,5-tetrahydro-1,4-benzoxazepin-7-yl]pyridin-3-yl}-6-methylbenzenesulfonamide] | 250 to 1000 |
| Cc1nc2ncc(-c3ccc4c(c3)CN(c3nc(CN(C)C(C)C)nc5c3CC(C)(C)CC5)CCO4)cc2[nH]1 [Example 606, N-({6,6-dimethyl-4-[7-(2-methyl-1H-imidazo[4,5-b]pyridin-6-yl)-2,3-dihydro-1,4-benzoxazepin-4(5H)-yl]-5,6,7,8-tetrahydroquinazolin-2-yl}methyl)-N-methylpropan-2-amine] | 10 to 50 |
| Nc1nc2ncc(-c3ccc4c(c3)CN(c3ncnc5ccc(Br)cc35)CCO4)cc2[nH]1 [Example 181, 6-[4-(6-brromoquinazolin-4-yl)-2,3,4,5-tetrahydro-1,4-benzoxazepin-7-yl]-1H-imidazo[4,5-b]pyridin-2-amine] | ≤ 10 |
| CC1(C)CCc2ncnc(N3CCOc4ccc(-c5cnc(N)c(S(=O)(=O)N6CC[C@H](N)C6)c5)cc4C3)c2C1 [Example 452, 3-{[(3S)-3-aminopyrrolidin-1-yl]sulfonyl}-5-[4-(6,6-dimethyl-5,6,7,8-tetrahydroquinazolin-4-yl)-2,3,4,5-tetrahydro-1,4-benzoxazepin-7-yl]pyridin-2-amine] | ≤ 10 |
| CN1CC[C@H](CNS(=O)(=O)c2cc(-c3ccc4c(c3)CN(c3ncnc5c3CC(C)(C)CC5)CCO4)cnc2N)C1 [Example 394, 2-amino-5-[4-(6,6-dimethyl-5,6,7,8-tetrahydroquinazolin-4-yl)-2,3,4,5-tetrahydro-1,4-benzoxazepin-7-yl]-N-{[(3S)-1-methylpyrrolidin-3-yl]methyl}pyridine-3-sulfonamide] | 50 to 250 |
| CCc1ncnc(N2CCOc3ccc(-c4cnc5nc(C)[nH]c5c4)cc3C2)c1C [Example 245, 4-(6-ethyl-5-methylpyrimidin-4-yl)-7-(2-methyl-1H-imidazo[4,5-b]pyridin-6-yl)-2,3,4,5-tetrahydro-1,4-benzoxazepine] | 50 to 250 |
| Cc1c(Nc2ccccc2)ncnc1N1CCOc2ccc(-c3cnc4nc(N)[nH]c4c3)cc2C1 [Example 540, 6-{4-[5-methyl-6-(phenylamino)pyrimidin-4-yl]-2,3,4,5-tetrahydro-1,4-benzoxazepin-7-yl}-1H-imidazo[4,5-b]pyridin-2-amine] | 10 to 50 |
| Cc1nc2ccc(-c3ccc4c(c3)CN(c3ncnc(C)c3C)CCO4)cc2[nH]1 [Example 48, 4-(5,6-dimethylpyrimidin-4-yl)-7-(2-methyl-1H-benimidazol-6-yl)-2,3,4,5-tetrahydro-1,4-benzoxazepine] | 1000 to 2000 |
| CNC(=O)c1ccc(-c2ccc3c(c2)CN(c2nc(CN(C)C)nc4c2CC(C)(C)CC4)CCO3)cc1 [Example 466, 4-(4-{2-[(dimethylamino)methyl]-6,6-dimethyl-5,6,7,8-tetrahydroquinazolin-4-yl}-2,3,4,5-tetrahydro-1,4-benzoxazepin-7-yl)-N-methylbenzamide] | 50 to 250 |
| CC1(C)CCc2ncnc(N3CCOc4ccc(-c5cnc6[nH]ncc6c5)cc4C3)c2C1 [Example 263, 4-(6,6-dimethyl-5,6,7,8-tetrahydroquinazolin-4-yl)-7-(1H-pyrazolo[3,4-b]pyridin-5-yl)-2,3,4,5-tetrahydro-1,4-benzoxazepine] | 50 to 250 |
| Cc1nc2c(c(N3CCOc4ccc(-c5cnc6sc(N)nc6c5)cc4C3)n1)CC(C)(C)CC2 [Example 669, 6-[4-(2,6,6-trimethyl-5,6,7,8-tetrahydroquinazolin-4-yl)-2,3,4,5-tetrahydro-1,4-benzoxazepin-7-yl][1,3]thiazolo[5,4-b]pyridin-2-amine] | ≤ 10 |
| COc1ccc2c(N3CCOc4ccc(-c5ccc6nc(C)[nH]c6c5)cc4C3)nc(C)nc2c1 [Example 258, 7-(2-methyl-1H-benzimidazol-6-yl)-4-[2-methyl-7-(methyloxy)quinoazolin-4-yl]-2,3,4,5-tetrahydro-1,4-benzoxazepine] | 250 to 1000 |
| Cc1nc2ccc(-c3ccc4c(c3)CN(c3ncnc(C)c3C(C)C)CCO4)cc2[nH]1 [Example 66, 7-(2-methyl-1H-benzimidazol-6-yl)-4-[6-methyl-5-(1-methylethyl)pyrimidin-4-yl]-2,3,4,5-tetrahydro-1,4-benzoxazepine] | ≤ 10 |
| Cc1nc2cc(-c3ccc4c(c3)CN(c3nc(CN(C)C)nc(C)c3-c3ccccc3)CCO4)ccc2[nH]1 [Example 681, N,N-dimethyl-1-{4-methyl-6-[7-(2-methyl-1H-benzimidazol-5-yl)-2,3-dihydro-1,4-benzoxazepin-4(5H)-yl]-5-phenylpyrimidin-2-yl}methanamine] | 50 to 250 |
